± gives the expanded uncertainty stated by the source.
How the values were obtained:
[1] = 100 kPa, Liquid; for viscosity: Capillary tube (Ostwald / Ubbelohde) method; for speed of sound: Frequency=2 MHz, Linear variable-path acoustic interferometer; for mass density: Vibrating tube method
[2] = xn = mol fraction of the nth substance listed; settings: 100 kPa, Liquid; for viscosity: Capillary tube (Ostwald / Ubbelohde) method; for speed of sound: Frequency=2 MHz, Linear variable-path acoustic interferometer; for mass density: Vibrating tube method

Q: Which results are given for `Nc1cccc(Cl)c1` [3-chlorobenzenamine]?
A: viscosity ([1]; 303.15 K): 4.255 ± 1 mPa·s; speed of sound ([1]; 303.15 K): 1517.5 ± 9.3 m/s; mass density ([1]; 303.15 K): 1205.32 ± 4 kg/m3; viscosity ([1]; 308.15 K): 3.842 ± 1 mPa·s; speed of sound ([1]; 308.15 K): 1501.2 ± 9.2 m/s; mass density ([1]; 308.15 K): 1200.75 ± 4 kg/m3; viscosity ([1]; 313.15 K): 3.43 ± 1 mPa·s; speed of sound ([1]; 313.15 K): 1480.3 ± 9 m/s; mass density ([1]; 313.15 K): 1196.02 ± 4 kg/m3; viscosity ([1]; 318.15 K): 3.022 ± 1 mPa·s; speed of sound ([1]; 318.15 K): 1464.8 ± 8.9 m/s; mass density ([1]; 318.15 K): 1191.25 ± 4 kg/m3

Q: What does the source list for `OCCCl` [1-chloro-2-hydroxyethane]?
A: viscosity ([1]; 303.15 K): 2.578 ± 1 mPa·s; speed of sound ([1]; 303.15 K): 1342.8 ± 8.2 m/s; mass density ([1]; 303.15 K): 1192.12 ± 4 kg/m3; viscosity ([1]; 308.15 K): 2.259 ± 1 mPa·s; speed of sound ([1]; 308.15 K): 1328.5 ± 8.1 m/s; mass density ([1]; 308.15 K): 1186.63 ± 4 kg/m3; viscosity ([1]; 313.15 K): 1.852 mPa·s; speed of sound ([1]; 313.15 K): 1315.5 ± 8 m/s; mass density ([1]; 313.15 K): 1178.05 ± 4 kg/m3; viscosity ([1]; 318.15 K): 1.564 mPa·s; speed of sound ([1]; 318.15 K): 1301.2 ± 7.9 m/s; mass density ([1]; 318.15 K): 1170.87 ± 4 kg/m3

Q: What does the source list for `OCCc1ccccc1` [2-phenylethanol] + Nc1cccc(Cl)c1?
A: viscosity ([2]; 303.15 K, x2 = 0): 9.045 ± 1 mPa·s; speed of sound ([2]; 303.15 K, x2 = 0): 1508.4 ± 9.2 m/s; mass density ([2]; 303.15 K, x2 = 0): 1012.34 ± 4 kg/m3; viscosity ([2]; 308.15 K, x2 = 0): 7.193 ± 1 mPa·s; speed of sound ([2]; 308.15 K, x2 = 0): 1490.8 ± 9.1 m/s; mass density ([2]; 308.15 K, x2 = 0): 1008.63 ± 4 kg/m3; viscosity ([2]; 313.15 K, x2 = 0): 6.085 ± 1 mPa·s; speed of sound ([2]; 313.15 K, x2 = 0): 1470.6 ± 9 m/s; mass density ([2]; 313.15 K, x2 = 0): 1004.84 ± 4 kg/m3; viscosity ([2]; 318.15 K, x2 = 0): 4.984 ± 1 mPa·s; speed of sound ([2]; 318.15 K, x2 = 0): 1456.4 ± 8.9 m/s; mass density ([2]; 318.15 K, x2 = 0): 1000.94 ± 4 kg/m3

Q: With `OCCc1ccccc1` [2-phenylethanol] as the compound, how does the viscosity ([1]; 303.15 K) read?
A: Its viscosity is 9.045 ± 1 mPa·s.

Q: And the speed of sound ([1]; 303.15 K)?
A: The speed of sound was 1508.4 ± 9.2 m/s.

Q: And the mass density ([1]; 303.15 K)?
A: Its mass density is 1012.34 ± 4 kg/m3.

Q: And the viscosity ([1]; 308.15 K)?
A: The viscosity was 7.193 ± 1 mPa·s.

Q: What about the speed of sound ([1]; 308.15 K) of the same compound?
A: Its speed of sound is 1490.8 ± 9.1 m/s.

Q: What about the mass density ([1]; 308.15 K) of the same compound?
A: The mass density was 1008.63 ± 4 kg/m3.

Q: And the viscosity ([1]; 313.15 K)?
A: The viscosity was 6.085 ± 1 mPa·s.

Q: What about the speed of sound ([1]; 313.15 K) of the same compound?
A: The speed of sound was 1470.6 ± 9 m/s.

Q: And the mass density ([1]; 313.15 K)?
A: The mass density was 1004.84 ± 4 kg/m3.

Q: And the viscosity ([1]; 318.15 K)?
A: The viscosity was 4.984 ± 1 mPa·s.

Q: And the speed of sound ([1]; 318.15 K)?
A: Its speed of sound is 1456.4 ± 8.9 m/s.

Q: And the mass density ([1]; 318.15 K)?
A: Its mass density is 1000.94 ± 4 kg/m3.

Q: What does the source list for `NCCO` [2-aminoethan-1-ol] + Nc1cccc(Cl)c1?
A: viscosity ([2]; 303.15 K, x2 = 0): 14.42 ± 1 mPa·s; speed of sound ([2]; 303.15 K, x2 = 0): 1703.1 ± 10 m/s; mass density ([2]; 303.15 K, x2 = 0): 1008.72 ± 4 kg/m3; viscosity ([2]; 308.15 K, x2 = 0): 11.71 ± 1 mPa·s; speed of sound ([2]; 308.15 K, x2 = 0): 1685.8 ± 10 m/s; mass density ([2]; 308.15 K, x2 = 0): 1004.65 ± 4 kg/m3; viscosity ([2]; 313.15 K, x2 = 0): 9.564 ± 1 mPa·s; speed of sound ([2]; 313.15 K, x2 = 0): 1671.2 ± 10 m/s; mass density ([2]; 313.15 K, x2 = 0): 1000.74 ± 4 kg/m3; viscosity ([2]; 318.15 K, x2 = 0): 7.558 ± 1 mPa·s; speed of sound ([2]; 318.15 K, x2 = 0): 1653.2 ± 10 m/s; mass density ([2]; 318.15 K, x2 = 0): 996.04 ± 4 kg/m3

Q: Which viscosity ([1]; 303.15 K) does the source give for `NCCO` [2-aminoethan-1-ol] here?
A: The viscosity was 14.42 ± 1 mPa·s.

Q: What about the speed of sound ([1]; 303.15 K) of the same compound?
A: Its speed of sound is 1703.1 ± 10 m/s.

Q: What about the mass density ([1]; 303.15 K) of the same compound?
A: The mass density was 1008.72 ± 4 kg/m3.

Q: What about the viscosity ([1]; 308.15 K) of the same compound?
A: The viscosity was 11.71 ± 1 mPa·s.

Q: And the speed of sound ([1]; 308.15 K)?
A: The speed of sound was 1685.8 ± 10 m/s.

Q: What about the mass density ([1]; 308.15 K) of the same compound?
A: The mass density was 1004.65 ± 4 kg/m3.

Q: What about the viscosity ([1]; 313.15 K) of the same compound?
A: The viscosity was 9.564 ± 1 mPa·s.

Q: And the speed of sound ([1]; 313.15 K)?
A: Its speed of sound is 1671.2 ± 10 m/s.

Q: What about the mass density ([1]; 313.15 K) of the same compound?
A: Its mass density is 1000.74 ± 4 kg/m3.

Q: And the viscosity ([1]; 318.15 K)?
A: Its viscosity is 7.558 ± 1 mPa·s.

Q: And the speed of sound ([1]; 318.15 K)?
A: The speed of sound was 1653.2 ± 10 m/s.

Q: What about the mass density ([1]; 318.15 K) of the same compound?
A: The mass density was 996.04 ± 4 kg/m3.

Q: What does the source list for `Nc1cccc(Cl)c1` [3-chlorobenzenamine] + OCCCl?
A: viscosity ([2]; 303.15 K, x1 = 1): 4.255 ± 1 mPa·s; speed of sound ([2]; 303.15 K, x1 = 1): 1517.5 ± 9.3 m/s; mass density ([2]; 303.15 K, x1 = 1): 1205.32 ± 4 kg/m3; viscosity ([2]; 308.15 K, x1 = 1): 3.842 ± 1 mPa·s; speed of sound ([2]; 308.15 K, x1 = 1): 1501.2 ± 9.2 m/s; mass density ([2]; 308.15 K, x1 = 1): 1200.75 ± 4 kg/m3; viscosity ([2]; 313.15 K, x1 = 1): 3.43 ± 1 mPa·s; speed of sound ([2]; 313.15 K, x1 = 1): 1480.3 ± 9 m/s; mass density ([2]; 313.15 K, x1 = 1): 1196.02 ± 4 kg/m3; viscosity ([2]; 318.15 K, x1 = 1): 3.022 ± 1 mPa·s; speed of sound ([2]; 318.15 K, x1 = 1): 1464.8 ± 8.9 m/s; mass density ([2]; 318.15 K, x1 = 1): 1191.25 ± 4 kg/m3

Source: the NIST ThermoML archive (doi:10.1016/j.jct.2015.11.012)
